Test results as given in patent US10799499B2, “Combinatorial therapies of neurological disorders” (PHARNEXT, priority 2016, dated 2020).

What was measured:
[1] = system: primary cortical neuron cells; assay: Toxicity of human Aβ1-42 peptide on primary cortical neuron cells (MAP2 antibody labelling); format: cell-based, rat; details: combinations versus drugs used alone at the same doses
Method: Effect on the Toxicity of Human Aβ1-42 Peptide on Primary Cortical Neuron Cells.
Culture of Primary Cortical Neurons
Rat cortical neurons are cultured as described by Singer et al.. Briefly pregnant female rats of 15 days gestation were killed by cervical dislocation (Rats Wistar) and the foetuses were removed from the uterus. The cortex was removed and placed in ice-cold medium of Leibovitz (L15) containing 2% of Penicillin 10.000 U/ml and Streptomycin 10 mg/ml and 1% of bovine serum albumin (BSA). Cortices were dissociated by trypsin for 20 min at 37° C. (0.05%). The reaction was stopped by the addition of Dulbecco's modified Eagle's medium (DMEM) containing DNase 1 grade II and 10% of fetal calf serum (FCS). Cells were then mechanically dissociated by 3 serial passages through a 10 ml pipette and centrifuged at 515×g for […] at +4° C. The supernatant was discarded and the pellet of cells was re-suspended in a defined culture medium consisting of Neurobasal supplemented with B27 (2%), L-glutamine (0.2 mM), 2% of PS solution and 10 ng/ml of BDNF. Viable cells are counted in a Neubauer cytometer using the trypan blue exclusion test. The cells are seeded at a density of 30 000 cells/well in 96 well-plates (wells were pre-coated with poly-L-lysine (10 μg/ml)) and are cultured at +37° C. in a humidified air (95%)/CO2 (5%) atmosphere.
Three independent cultures are performed per condition, 6 wells per condition.
Test compounds and Human Amyloid-β1-42 Treatment
Briefly, Aβ1-42 peptide is reconstituted in define culture medium at 40 μM (mother solution) and was slowly shaken at +37° C. for 3 days in dark. The control medium is prepared in the same conditions.
After 3 days, the solution is used on primary cortical neurons as follows.
After 10 days of neuron culture, test compounds and combinations thereof are solved in culture medium (+0.1% DMSO) and then pre-incubated with neurons for one hour before the Aβ1_42 application (in a final volume per culture well of 100 μl). One hour after test compound(s) incubation, 100 μl of Aβ1-42 peptide is added to a final concentration of 10 μM diluted in presence of drug(s), in order to avoid further test compound(s) dilutions. Cortical neurons are intoxicated for 24 h. Three separate cultures are performed per condition, 6 wells per condition.
BDNF (50 ng/ml) is used as positive control. Three separate cultures are performed per condition, 12 wells per condition.
MAP2 Antibody Labelling Assay
24 hours after intoxication, the cell culture supernatant is taken off and the cortical neurons are fixed by a cold solution of ethanol (95%) and acetic acid (5%) for 5 min at −20° C. After permeabilization with 0.1% of saponin, cells are incubated for 2 h with mouse monoclonal antibody anti microtubule-associated-protein 2 (MAP-2; Sigma) at dilution of 1/400 in PBS containing 1% fetal calf serum and 0.1% of saponin (this antibody stains specifically cell bodies and neurites, allowing study of both the neurite network and cell death). […] For each condition, 30 pictures per well are taken using InCell Analyzer™ 1000 (GE Healthcare) with 20× magnification. All images are taken with the same conditions. Analysis of total neurite network and number of neurons is performed automatically by using Developer software (GE Healthcare).
Data are expressed in percentage of control conditions (no intoxication, no amyloid=100%) in order to express the amyloid injury. All values are expressed as mean+/−SEM (s.e.mean) of the 3 cultures (n=6 wells per condition). Statistical analyses are done on the different conditions (one-way ANOVA followed by the Dunnett's test when it is allowed, Statview software version 5.0).

Male Swiss mice [2] = assay: Spontaneous alternation in the Y-maze (spatial working memory) in mice injected ICV with Aβ25-35; format: in vivo, mouse; details: oral gavage Day 0 to Day 10, quinoline 1 mg/Kg once a day, baclofen 480 μg/Kg and acamprosate 32 μg/Kg twice a day, test at Day 8
Method: (§1) The peptide amyloid-β25-35 (Aβ25-35) is the hydrophobic part of the full-length amyloid peptide. Injection of this peptide in the brain ventricles of rodents is known to induce a progressive neurodegenerative processes resulting in cognitive impairments. This model is commonly used for diseases involving cognitive impairment symptoms.
(§2) Male Swiss mice were administered from Day 0 to Day 10 with sham product (group 1 and 2); 3-phenylsulfonyl-8-(piperazin-1-yl) quinoline (group 3); baclofen and acamprosate (group 4); or 3-phenylsulfonyl-8-(piperazin-1-yl) quinoline, baclofen and acamprosate (group 5).
(§3) 3-phenylsulfonyl-8-(piperazin-1-yl) quinoline) was administered orally by gavage once a day (1 mg/Kg of the individual body weight of each mouse.
(§4) A composition of baclofen and acamprosate was administered orally by gavage twice a day (respectively 480 μg/Kg and 32 μg/Kg of the individual body weight of each mouse).
(§5) At Day 1, oligomeric Aβ25-35 peptide was injected ICV (intracerebroventricular) to provoke amyloid toxicity (group 2, 3, 4 and 5). […]
Animals were tested for spontaneous alternation performance in the Y-maze, an index of spatial working memory. […] The number of maximum alternations was therefore the total number of arm entries minus two and the percentage of alternation was calculated as (actual alternations/maximum alternations)×100. […]

Male Swiss mice [3] = assay: Step-through passive avoidance test (contextual long-term memory) in mice injected ICV with Aβ25-35; format: in vivo, mouse; details: oral gavage Day 0 to Day 10, quinoline 1 mg/Kg once a day, baclofen 480 μg/Kg and acamprosate 32 μg/Kg twice a day, retention at Day 10
Method: as §1, §2, §3, §4, §5
All animals were tested for passive avoidance performance, an index of contextual long-term memory. […] The step-through latency, that is, the latency spent to enter the darkened compartment, and the number of vocalizations were recorded. […] The step-through latency was recorded up to 300 s.

| Compound | protective effect on neuronal cells against Aβ1-42 toxicity [1] | effect on the impairment of cognitive function induced by Aβ(25-35), Y-maze (Male Swiss mice [2]) | effect on the impairment of cognitive function induced by Aβ(25-35), step-through passive avoidance (Male Swiss mice [3]) |
| --- | --- | --- | --- |
| Nc1c2c(nc3ccccc13)CCCC2 [tacrine] | no or a marginal protective effect |  |  |
| CC12CC3CC(C)(C1)CC(N)(C3)C2 [memantine] | no or a marginal protective effect |  |  |
| NCC(CC(=O)O)c1ccc(Cl)cc1 (centres unmarked) [baclofen] | no or a marginal protective effect |  |  |
| CCN(C)C(=O)Oc1cccc([C@H](C)N(C)C)c1 [rivastigmine] | no or a marginal protective effect |  |  |
| CC(=O)NCCCS(=O)(=O)O [acamprosate] | no or a marginal protective effect |  |  |
| O=S(=O)(c1ccccc1)c1cnc2c(N3CCNCC3)cccc2c1 [3-phenylsulfonyl-8-(piperazin-1-yl) quinoline] | no or a marginal protective effect | did not show any significant effect | did not show any significant effect |
